Test results published in patent publication US12286442B2, “Methods and materials for increasing transcription factor eb polypeptide levels” (University of Pittsburgh—Of the Commonwealth System of …, priority 2019, dated 2025).

test system: TFEB; experiment: High content screen measuring TFEB nuclear accumulation (TFEB nuclear/cytosol ratio) in BEAS-2B cells stably expressing TFEB-EGFP; format: cell-based, human; conditions: 18 hours incubation
In short: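 BEAS-2B cells stably expressing TFEB-EGFP (~2300–2500 per well) pre-incubated 8 hours, then exposed to serially diluted compounds (DMEM low glucose, 2% FBS) for 18 hours, PFA-fixed and DAPI-stained. Imaged nuclear (DAPI mask) vs cytosolic (expanded mask) TFEB-GFP; activity = minimal concentration raising nuclear/cytosol ratio by 25%.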

| SMILES | efficacy (minimal compound concentration needed to increase TFEB nuclear/cytosol ratio by 25%) |
| --- | --- |
| CCc1cc(C)cc(Nc2nc(-c3ccncc3)nc3ccccc23)c1 [Compound 22] | + (“+” equals >25 μM) |
| c1ccc2c(Nc3ccc4[nH]ccc4c3)nc(-c3cncs3)nc2c1 [Compound 78] | ++ (“++” equals between ≤25 μM and >1 μM) |
| c1ccc2c(Nc3ccc4[nH]ncc4c3)nc(-c3ccncc3)cc2c1 [Compound 48] | + (“+” equals >25 μM) |
| Cc1nc2cc(C)c(Nc3nc(-c4ccncc4)nc4ccccc34)cc2s1 [Compound 86] | +++ (“+++” equals ≤1 μM) |
| Cc1nc2cc(Nc3nc(-c4ccncc4)nc4ccccc34)ccc2o1 [Compound 37] | ++ (“++” equals between ≤25 μM and >1 μM) |
| Fc1cccc2c(Nc3ccc4ncsc4c3)nc(-c3ccncc3)nc12 [Compound 372] | +++ (“+++” equals ≤1 μM) |
| O=C1NC(=O)c2cc(Nc3nc(-c4ccncc4)nc4ccccc34)ccc21 [Compound 33] | + (“+” equals >25 μM) |
| Cc1nc2cc(Cl)c(Nc3nc(-c4ccncc4)nc4ccccc34)cc2o1 [Compound 143] | +++ (“+++” equals ≤1 μM) |
| Cc1cc(C)cc(-n2c(=O)c3ccccc3n(CC(=O)Nc3c(C)cc(C)cc3C)c2=O)c1 [Compound 223] | + (“+” equals >25 μM) |
| c1ccc2c(Nc3ccc4cnccc4c3)nc(-c3ccncc3)nc2c1 [Compound 14] | + (“+” equals >25 μM) |
| c1ccc2c(NC3CCCCC3)nc(-c3ccncc3)nc2c1 [Compound 170] | + (“+” equals >25 μM) |
| Cc1nc2cc(Nc3nc(-c4ccncc4)nc4ccccc34)ccc2[nH]1 [Compound 29] | ++ (“++” equals between ≤25 μM and >1 μM) |
| CCc1nc2ccc(Nc3nc(-c4ccncc4)nc4cccc(F)c34)cc2s1 [Compound 368] | ++ (“++” equals between ≤25 μM and >1 μM) |
| Fc1cc(Nc2nc(-c3cncs3)nc3ncccc23)cc2cc[nH]c12 [Compound 396] | +++ (“+++” equals ≤1 μM) |
| c1ccc2c(Nc3ccc4oncc4c3)nc(-c3cncs3)nc2c1 [Compound 394] | + (“+” equals >25 μM) |
| c1ccc2c(Nc3ccc4[nH]ncc4c3)nc(N3CCOCC3)nc2c1 [Compound 44] | +++ (“+++” equals ≤1 μM) |
| c1cnc2c(Nc3ccc4[nH]ccc4c3)nc(-c3ccncc3)nc2c1 [Compound 83] | ++ (“++” equals between ≤25 μM and >1 μM) |
| c1cnc2cc(-c3ccncc3)nc(Nc3ccc4nc(C5CCC5)sc4c3)c2c1 [Compound 402] | +++ (“+++” equals ≤1 μM) |
| c1cc(-c2nc(Nc3ccc4nc(C5CC5)sc4c3)c3cnccc3n2)ccn1 [Compound 121] | + (“+” equals >25 μM) |
| O=C(c1cccc(F)c1)c1nc(-c2ccncc2)nc2ccccc12 [Compound 5] | + (“+” equals >25 μM) |
| c1ccc2c(Nc3ccc4cnoc4c3)nc(-c3cncs3)nc2c1 [Compound 393] | ++ (“++” equals between ≤25 μM and >1 μM) |
| Fc1ccccc1Nc1nc(-c2ccncc2)nc2ccccc12 [Compound 180] | + (“+” equals >25 μM) |
| c1ccc2c(Nc3ccc4[nH]ncc4c3)nc(-c3cncs3)nc2c1 [Compound 77] | +++ (“+++” equals ≤1 μM) |
| c1ccc2c(Nc3ccc4ncoc4c3)nc(-c3ccncc3)nc2c1 [Compound 142] | +++ (“+++” equals ≤1 μM) |
| Fc1cccc(Nc2nc(-c3ccncc3)cc3ccccc23)c1 [Compound 43] | ++ (“++” equals between ≤25 μM and >1 μM) |
| CCc1nc2ccc(Nc3nc(-c4ccncc4)nc4ccccc34)cc2s1 [Compound 90] | +++ (“+++” equals ≤1 μM) |
| Fc1cc(Nc2nc(-c3ccncc3)cc3ncccc23)cc2sc(C3CC3)nc12 [Compound 246] | +++ (“+++” equals ≤1 μM) |
| NC1CCC(Nc2nc(-c3ccncc3)nc3ccccc23)CC1 (stereo not drawn) [Compound 60] | + (“+” equals >25 μM) |
| C=CCn1c(=O)c2ccc(C(=O)NCc3ccccc3)cc2n(Cc2ccc(C)cc2)c1=O [Compound 233] | + (“+” equals >25 μM) |
| CC(=O)c1cc(F)cc(Nc2nc(-c3ccncc3)nc3ccccc23)c1 [Compound 51] | + (“+” equals >25 μM) |

test system: BEAS-2B cells; experiment: Toxicity: compound concentration needed to induce greater than 50 percent of cell loss; format: cell-based, human; conditions: 18 hours incubation
In short: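 BEAS-2B cells stably expressing TFEB-EGFP treated with serial compound dilutions for 18 h, then PFA-fixed, DAPI-stained and imaged. Toxicity scored as the concentration causing >50% cell loss, binned as ≥25 μM, <25 and >1 μM, or ≤1 μM ("+++").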

| SMILES | toxicity (compound concentration needed to induce greater than 50 percent of cell loss) |
| --- | --- |
| CCc1cc(C)cc(Nc2nc(-c3ccncc3)nc3ccccc23)c1 [Compound 22] | + (cell loss of greater than 50 percent at a concentration that equals or is greater than 25 μM was represented as) |
| c1ccc2c(Nc3ccc4[nH]ccc4c3)nc(-c3cncs3)nc2c1 [Compound 78] | + (cell loss of greater than 50 percent at a concentration that equals or is greater than 25 μM was represented as) |
| c1ccc2c(Nc3ccc4[nH]ncc4c3)nc(-c3ccncc3)cc2c1 [Compound 48] | + (cell loss of greater than 50 percent at a concentration that equals or is greater than 25 μM was represented as) |
| Cc1nc2cc(C)c(Nc3nc(-c4ccncc4)nc4ccccc34)cc2s1 [Compound 86] | +++ (cell loss of greater than 50 percent at a concentration that equals or is less than 1 μM was represented as “+++.”) |
| Cc1nc2cc(Nc3nc(-c4ccncc4)nc4ccccc34)ccc2o1 [Compound 37] | + (cell loss of greater than 50 percent at a concentration that equals or is greater than 25 μM was represented as) |
| Fc1cccc2c(Nc3ccc4ncsc4c3)nc(-c3ccncc3)nc12 [Compound 372] | + (cell loss of greater than 50 percent at a concentration that equals or is greater than 25 μM was represented as) |
| O=C1NC(=O)c2cc(Nc3nc(-c4ccncc4)nc4ccccc34)ccc21 [Compound 33] | + (cell loss of greater than 50 percent at a concentration that equals or is greater than 25 μM was represented as) |
| Cc1nc2cc(Cl)c(Nc3nc(-c4ccncc4)nc4ccccc34)cc2o1 [Compound 143] | + (cell loss of greater than 50 percent at a concentration that equals or is greater than 25 μM was represented as) |
| Cc1cc(C)cc(-n2c(=O)c3ccccc3n(CC(=O)Nc3c(C)cc(C)cc3C)c2=O)c1 [Compound 223] | + (cell loss of greater than 50 percent at a concentration that equals or is greater than 25 μM was represented as) |
| c1ccc2c(Nc3ccc4cnccc4c3)nc(-c3ccncc3)nc2c1 [Compound 14] | + (cell loss of greater than 50 percent at a concentration that equals or is greater than 25 μM was represented as) |
| c1ccc2c(NC3CCCCC3)nc(-c3ccncc3)nc2c1 [Compound 170] | + (cell loss of greater than 50 percent at a concentration that equals or is greater than 25 μM was represented as) |
| Cc1nc2cc(Nc3nc(-c4ccncc4)nc4ccccc34)ccc2[nH]1 [Compound 29] | + (cell loss of greater than 50 percent at a concentration that equals or is greater than 25 μM was represented as) |
| CCc1nc2ccc(Nc3nc(-c4ccncc4)nc4cccc(F)c34)cc2s1 [Compound 368] | + (cell loss of greater than 50 percent at a concentration that equals or is greater than 25 μM was represented as) |
| Fc1cc(Nc2nc(-c3cncs3)nc3ncccc23)cc2cc[nH]c12 [Compound 396] | + (cell loss of greater than 50 percent at a concentration that equals or is greater than 25 μM was represented as) |
| c1ccc2c(Nc3ccc4oncc4c3)nc(-c3cncs3)nc2c1 [Compound 394] | + (cell loss of greater than 50 percent at a concentration that equals or is greater than 25 μM was represented as) |
| c1ccc2c(Nc3ccc4[nH]ncc4c3)nc(N3CCOCC3)nc2c1 [Compound 44] | + (cell loss of greater than 50 percent at a concentration that equals or is greater than 25 μM was represented as) |
| c1cnc2c(Nc3ccc4[nH]ccc4c3)nc(-c3ccncc3)nc2c1 [Compound 83] | + (cell loss of greater than 50 percent at a concentration that equals or is greater than 25 μM was represented as) |
| c1cnc2cc(-c3ccncc3)nc(Nc3ccc4nc(C5CCC5)sc4c3)c2c1 [Compound 402] | + (cell loss of greater than 50 percent at a concentration that equals or is greater than 25 μM was represented as) |
| c1cc(-c2nc(Nc3ccc4nc(C5CC5)sc4c3)c3cnccc3n2)ccn1 [Compound 121] | + (cell loss of greater than 50 percent at a concentration that equals or is greater than 25 μM was represented as) |
| O=C(c1cccc(F)c1)c1nc(-c2ccncc2)nc2ccccc12 [Compound 5] | + (cell loss of greater than 50 percent at a concentration that equals or is greater than 25 μM was represented as) |
| c1ccc2c(Nc3ccc4cnoc4c3)nc(-c3cncs3)nc2c1 [Compound 393] | + (cell loss of greater than 50 percent at a concentration that equals or is greater than 25 μM was represented as) |
| Fc1ccccc1Nc1nc(-c2ccncc2)nc2ccccc12 [Compound 180] | + (cell loss of greater than 50 percent at a concentration that equals or is greater than 25 μM was represented as) |
| c1ccc2c(Nc3ccc4[nH]ncc4c3)nc(-c3cncs3)nc2c1 [Compound 77] | + (cell loss of greater than 50 percent at a concentration that equals or is greater than 25 μM was represented as) |
| c1ccc2c(Nc3ccc4ncoc4c3)nc(-c3ccncc3)nc2c1 [Compound 142] | + (cell loss of greater than 50 percent at a concentration that equals or is greater than 25 μM was represented as) |
| Fc1cccc(Nc2nc(-c3ccncc3)cc3ccccc23)c1 [Compound 43] | + (cell loss of greater than 50 percent at a concentration that equals or is greater than 25 μM was represented as) |
| CCc1nc2ccc(Nc3nc(-c4ccncc4)nc4ccccc34)cc2s1 [Compound 90] | + (cell loss of greater than 50 percent at a concentration that equals or is greater than 25 μM was represented as) |
| Fc1cc(Nc2nc(-c3ccncc3)cc3ncccc23)cc2sc(C3CC3)nc12 [Compound 246] | + (cell loss of greater than 50 percent at a concentration that equals or is greater than 25 μM was represented as) |
| NC1CCC(Nc2nc(-c3ccncc3)nc3ccccc23)CC1 (stereo not drawn) [Compound 60] | + (cell loss of greater than 50 percent at a concentration that equals or is greater than 25 μM was represented as) |
| C=CCn1c(=O)c2ccc(C(=O)NCc3ccccc3)cc2n(Cc2ccc(C)cc2)c1=O [Compound 233] | + (cell loss of greater than 50 percent at a concentration that equals or is greater than 25 μM was represented as) |
| CC(=O)c1cc(F)cc(Nc2nc(-c3ccncc3)nc3ccccc23)c1 [Compound 51] | + (cell loss of greater than 50 percent at a concentration that equals or is greater than 25 μM was represented as) |
